Data on 1 molecule can be found in patent US20110081428A1, “Use of thioflavin-like compounds to increase life span and/or health span” (priority 2009, published 2011).

One data set has as its system ZZ26 unc-63(x26)I. The conditions noted are these: 50 μM levamisole, after 3 days of treatment. How it is done: Scoring for paralysis was initiated 2 and 8 days after temperature upshift for CL4176 and AM140, respectively. […] For sensitivity to EtOH or levamisole resistance, CW152 gas-1 (fc21) X and ZZ26 unc-63(x26)I worms were picked into 0.4 M EtOH or 50 μM levamisole, respectively, equilibrated for 5 min, and scored for paralysis as described above. Treated and untreated worms were compared with an unpaired t-test (implemented in Prism 4, Graphpad™ Software, Inc., San Diego, Calif., USA).

For another data set, the system named is PS3551 [hsf-1(sy441)I]. Kind of data set: Lifespan assay, hsf-1 mutant. The data set is classed as in vivo, Caenorhabditis elegans. The conditions noted are these: 50 μM ThT, 100 μM curcumin.
Data set [1] has as its system N2 worms raised on 1×10^9 cfu/ml. Kind of data set: Lifespan under dietary restriction (diluted bacterial food). The conditions noted are these: 20° C. How it is done: Plates were prepared as described (Chen, D., Thomas, E. L. & Kapahi, P. HIF-1 modulates dietary restriction-mediated lifespan extension via IRE-1 in Caenorhabditis elegans. PLoS Genet. 5, e1000486, (2009), but bacterial concentration was adjusted to 1.0×10^12 cfu/ml and diluted to achieve bacterial concentration of 1.0×10^9 cfu/ml. Diluted bacterial cultures were spotted onto DR agar plates, which were modified from the standard nematode growth media (NGM) plates by excluding peptone and increasing agar from 1.7% to 2.0%. Carbenicillin ([…]) was added to the agar plates to further prevent bacterial growth. Synchronized L4 larvae grown under standard lab conditions (NGM plates with OP50 food, 20° C.) were transferred to fresh DR agar plates in presence or absence of 1, 10, 25, 50 and 100 μM ThT and lifespans scored as described above.

Data set [2] relates to HE250 [unc-52(e669su250)II]. Kind of data set: Worm paralysis assay, unc-52 ts mutant. The format is in vivo, Caenorhabditis elegans.
For a further data set, the system named is chn-1 RNA. Kind of data set: Real time quantitative PCR, chn-1. The conditions noted are these: 50 μM ThT, 3 and 6 days of treatment. The data set is classed as in vivo, Caenorhabditis elegans. How it is done: Twelve single adults from control or 50 μM ThT populations were picked after 3, 6 and 12 days of treatment into 5 μl of distilled water and flash frozen until extraction. Individual worms were extracted using the RNeasy Micro Kit, TissueLyser and QIAcube (Qiagen). Using the manufacturer's standard Animal Tissue protocol, each sample was homogenized in buffer RLT/Bme (Qiagen) on the TissueLyser (6 min total at 20 Hz). Samples, reagents and columns were then loaded into the QIAcube robot, and processed using the “RNeasy Micro—Animal tissues and cells—DNase digest” program. Each sample was then eluted in 14 μl of Nuclease-free water. cDNA templates for the Real Time PCR reactions were made using a combination of Message Sensor RT kit (Ambion's) and TaqMan PreAmp Master Mix (Applied Biosystems). The entire worm sample was added to the RT reaction and reversed transcribed at 50° C. for 20 min, using Message Sensor's “Two Step RT-PCR Protocol” (sample RT's were randomized). Then 2.5 μl of the cDNA sample was pre-amplified with a “4×Multiplex Primer Mix” for 14 cycles using TaqMan PreAmp master mix and protocol (ABI). Two modifications were made to ABI's protocol: 1. the reaction volume was reduced to 10 μl and 2. after pre-amplification, each cDNA sample was diluted 1:5 with 1XTE Buffer (Promega). cDNA samples were stored at −20° C. until needed. […]

The next data set deals with TJ1052 [age-1(hx546)II]. Kind of data set: Lifespan assay, age-1 mutant. The format is in vivo, Caenorhabditis elegans. The conditions noted are these: 50 μM ThT, 25° C. How it is done: Lifespan assays were performed as described previously. (McColl, G. et al. Pharmacogenetic analysis of lithium-induced delayed aging in Caenorhabditis elegans. J Biol Chem 283, 350-357 (2008). Briefly, the nematode growth media (NGM) plates were prepared under sterile conditions. 100 μL of concentrated stocks of each of the compounds used in this study were added onto a previously prepared NGM small plate (3 mL volume) immediately spread over the surface of the plate. The final concentrations quoted in the text assume an even distribution of compound throughout the 3 ml plate. The plates were then placed in a laminar flow hood at room temperature for 30 min and then 60 μL of a concentrated suspension of E. coli OP50 was spotted to form a circular lawn on the center of each plate. Thirty late L4 larvae growing at 20° C. were transferred to fresh NGM plates with FUdR (75 μM) in presence or absence of the specified compounds and incubated at 20° C. The first day of adulthood is Day 3 in survival curves. There was between-experiment variation in the magnitude of the lifespan extension observed with ThT which appeared to correlate with different suppliers and batches. ThT concentration should be optimized depending on batch and purity and stability of the compound. […]
Animals were scored as alive, dead or lost every other day. […]

The next data set relates to wildtype (N2) C. elegans. Kind of data set: Demographic analysis of age-specific mortality (Gompertz). The data set is classed as in vivo, Caenorhabditis elegans. The conditions noted are these: 50 μM ThT, p<0.001. How it is done: Data are presented as bends/min and represent the average of three independent experiments. *p<0.0001. e) Dose-response Kaplan-Meier survival curves of synchronously ageing hermaphrodite N2 populations exposed to 0 (control) to […], f) HBX and g) HBT at 20° C. (−) Control, (▪) 1 nM, ([…]) 10 μM, (▴) 100 μM, (▾) […]. Graphs are representative of three independent experiments.
Estimates of initial mortality rate and rate of increase with age and model fitting were made using WinModest. Gompertz mortality curves, ln(ux)=ln(a)+bx, where ux defines the age-specific hazard, were fitted with log-likelihood ratios used to examined the effects of constraining the intercept (a) or gradient (b) variables.

Each structure is given as a SMILES string. Entries after “also recorded” stand apart in the source; their conditions may differ.

Experimental for PS3551 [hsf-1(sy441)I]: Lifespan assays were performed as described previously. (McColl, G. et al. Pharmacogenetic analysis of lithium-induced delayed aging in Caenorhabditis elegans. J Biol Chem 283, 350-357 (2008). Briefly, the nematode growth media (NGM) plates were prepared under sterile conditions. 100 μL of concentrated stocks of each of the compounds used in this study were added onto a previously prepared NGM small plate (3 mL volume) immediately spread over the surface of the plate. The final concentrations quoted in the text assume an even distribution of compound throughout the 3 ml plate. The plates were then placed in a laminar flow hood at room temperature for 30 min and then 60 μL of a concentrated suspension of E. coli OP50 was spotted to form a circular lawn on the center of each plate. Thirty late L4 larvae growing at 20° C. were transferred to fresh NGM plates with FUdR (75 μM) in presence or absence of the specified compounds and incubated at 20° C. The first day of adulthood is Day 3 in survival curves. […] ThT concentration should be optimized depending on batch and purity and stability of the compound.
Animals were scored as alive, dead or lost every other day. […] Animals that died from causes other than ageing, such as sticking to the plate walls, internal hatching of eggs (“bagging”) or gonadal extrusion were censored as were lost worms. […]

As for `Cc1ccc2c(c1)sc(-c1ccc(N(C)C)cc1)[n+]2C.[Cl-]` [ThT, 4-(3,6-dimethyl-1,3-benzothiazol-3-ium-2-yl)-N,N-dimethylaniline chloride], in the data set with ZZ26 unc-63(x26)I, the levamisole resistance result is listed as “increases levimisole resistance”. Moreover, the “lifespan of hsf-1(sy441) mutant” value with PS3551 [hsf-1(sy441)I] is given as “does not increase lifespan”. The “lifespan in bacterial dilution DR model” value in data set [1] (50 μM ThT) was “detrimental to lifespan”. Further, in data set [1] (1 and 10 μM ThT), the “increase in lifespan in bacterial dilution DR model” value is reported as 24%. The “paralysis phenotype, continuous exposure and addition after 18 h at restrictive temperature” value in data set [2] (HE250, 50 μM ThT, scored after 36 h at 25° C.) is on record as “Prevention of paralysis phenotype”. Further, the “paralysis phenotype of unc-52 mutant” value in data set [2] (HE250, 25° C., 36 h, 50 μM ThT, 100 μM curcumin, 100 μM rifampicin) is recorded as “suppressed paralysis; also recorded: Protection”. Also, the “chn-1 RNA levels” value in the data set on chn-1 RNA is reported as “up-regulated”. Moreover, in the data set on TJ1052 [age-1(hx546)II], the “lifespan of age-1(hx546) mutant” value is listed as “extended the lifespan”. Moreover, the age-specific mortality entry in the data set with wildtype (N2) C. elegans is listed as “reduced age-specific mortality at all ages”.
